Several values for one entry are separate records, joined by “and”; a condition that tells them apart may be missing. Equal entries are not always repeated.

By Papp B→A is commonly meant how fast a substance crosses the layer from the basolateral side. By DC50 is commonly meant the concentration at which degradation of the target reaches its halfway point.

The subject of one data set is P-gp (human MDR1). Briefly: in vitro. The following applies: dog, MDCK-MDR1.
The target in the next data set is T1, VHL + Brd4BD2 (Homo sapiens, UniProt O60885+P40337).
T1 construct: Brd4-BD2 (333–460); His6 (N, cleaved yes); made in house; host or cells: E. coli
The class given is binding. The following applies: for ΔpKd: Log10(α) = pKd ternary - pKd binary.

For a further data set, the target named is VHL + Brd4BD1 (Homo sapiens, UniProt O60885+P40337). The following applies: for ΔpKd: Log10(α) = pKd ternary - pKd binary; for Cooperativity α: α = Kd binary/Kd ternary.
Another data set deals with T2, VHL + Brd3BD2 (Homo sapiens, UniProt P40337+Q15059).
T2 construct: Brd3-BD2 (306–416); His6 (N, cleaved yes); made in house; host or cells: E. coli
Briefly: FP competition, ternary binding to VHL with Brd3BD2. Particulars: for ΔpKd: Log10(α) = pKd ternary - pKd binary; for Cooperativity α: α = Kd binary/Kd ternary.

For a further data set, the target named is VHL + Brd3BD1 (Homo sapiens, UniProt P40337+Q15059). The following applies: for ΔpKd: Log10(α) = pKd ternary - pKd binary; for Cooperativity α: α = Kd binary/Kd ternary.
A further data set concerns the target T3, VHL + Brd2BD2 (Homo sapiens, UniProt P25440+P40337).
T3 construct: Brd2-BD2 (344–455); His6 (N, cleaved yes); made in house; host or cells: E. coli
Nature of the data set: FP competition, ternary binding to VHL with Brd2BD2. Particulars: for ΔpKd: Log10(α) = pKd ternary - pKd binary.

In the next data set the target is T4, VHL + Brd2BD1 (Homo sapiens, UniProt P25440+P40337).
T4 construct: His6 (N, cleaved yes); made in house; host or cells: E. coli
Briefly: FP competition, ternary binding to VHL with Brd2BD1.

The next data set deals with T5, Brd2 (Homo sapiens, UniProt P25440).
T5 construct: endogenous in cells; host or cells: HEK293
Briefly: Western blot degradation of Brd2 in HEK293 cells. The class given is cell-based.

Another data set deals with T6, Brd4 (Homo sapiens, UniProt O60885).
T6 construct: endogenous in cells; host or cells: HEK293
Nature of the data set: Western blot degradation of Brd4 in HEK293 cells. The class given is cell-based. The following applies: HEK293, 4 h, 10 μM, N = 1.

Turning to `Cc1ncsc1-c1ccc(CNC(=O)[C@@H]2C[C@@H](O)CN2C(=O)[C@@H](NC(=O)COCCOCCOCCNC(=O)C[C@@H]2N=C(c3ccc(Cl)cc3)c3c(sc(C)c3C)-n3c(C)nnc32)C(C)(C)C)cc1` [Compound 21, MZ1], the “PAMPA Pe” value is 0.01 ×10^–6 cm/s. For the same compound, in the data set with P-gp (human MDR1), the Papp B→A at 5 µM turned out to be 1.5 ×10⁻⁶ cm/s. Further, the ΔpKd at VHL + Brd4BD2 was determined as 1.73. Further, at VHL + Brd4BD1, the ΔpKd is recorded as 0.62 and the “Cooperativity α” value was found to be 4.2. Further, on VHL + Brd3BD2, the ΔpKd is given as 0.73 and the “Cooperativity α” value was determined as 5.3. In addition, on VHL + Brd3BD1, the ΔpKd was found to be 0.45 and the “Cooperativity α” value came out at 2.8. Besides, the ΔpKd on VHL + Brd2BD2 was 1.46.

Regarding `Cc1ncsc1-c1ccc([C@H](C)NC(=O)[C@@H]2C[C@@H](O)CN2C(=O)[C@@H](NC(=O)COCCCOCCNC(=O)C[C@@H]2N=C(c3ccc(Cl)cc3)c3c(sc(C)c3C)-n3c(C)nnc32)C(C)(C)C)cc1` [Compound 22, ARV-771], the ΔpKd at VHL + Brd4BD2 is given as 1.12; on VHL + Brd2BD1 (Log10(α) = pKd ternary - pKd binary) it was 0.38; on VHL + Brd4BD1, 0.42; at VHL + Brd3BD2 it was 0.64; at VHL + Brd3BD1, 0.30; on VHL + Brd2BD2, 0.66. Also, the “Cooperativity α” value on VHL + Brd4BD2 (α = Kd binary/Kd ternary) stood at 13; on VHL + Brd2BD1 (α = Kd binary/Kd ternary), 2.4; at VHL + Brd4BD1, 2.6; at VHL + Brd3BD2 it was 4.3; at VHL + Brd3BD1, 2.0; on VHL + Brd2BD2 (α = Kd binary/Kd ternary) it was 4.6. Also, the “pDC50 Brd2” value on Brd2 (HEK293, 4 h, 1 μM to 100 pM, mean ± S.E., three experiments) was 6.9 ± 0.2 and 7.4 ± 0.1. Also, the 50% degradation concentration (DC50) on Brd2 (read-out: DC50 Brd2, HEK293 cells) worked out at 42 nM. Besides, on Brd4, the “Hook effect, Brd4 protein levels” value is recorded as “exhibited a hook effect”. Also, the Kd on VHL + Brd2BD2 (read-out: pKd ternary (converted)) is 7.41 nM.

Values taken from article PMC8713283 (Journal of Medicinal Chemistry, 2021).
